Measurements published in the kinase profiling compilation of Christmann-Franck et al. (2016).
Values joined by “and” are separate entries in the source; they are usually repeats but may differ in a detail not shown here. Identical values can stand only once.

Experiments:
Experiment in all cases: radiometric filter-binding kinase assay, Kinase HotSpot
Conditions in all cases: compound 0.5 µM; ATP 10 µM
WEE1 (human) = WEE1 (human) (UniProt P30291)
NEK2 (human) = NEK2 (human) (UniProt P51955)
SRMS (human) = SRMS (human) (UniProt Q9H3Y6)
SRC (human) = SRC (human) (UniProt P12931)
PTK6 (human) = PTK6 (human) (UniProt Q13882)
CDK9 CCNT1 (human) = CDK9 CCNT1 (human) (UniProt P50750+O60563)
EPHB2 (human) = EPHB2 (human) (UniProt P29323)
PTK2 (human) = PTK2 (human) (UniProt Q05397)
PRKCE (human) = PRKCE (human) (UniProt Q02156)
PHKG1 (human) = PHKG1 (human) (UniProt Q16816)
MAPKAPK2 (human) = MAPKAPK2 (human) (UniProt P49137)
Chain of MAPKAPK2 (human) (P49137 whole entry, looked up): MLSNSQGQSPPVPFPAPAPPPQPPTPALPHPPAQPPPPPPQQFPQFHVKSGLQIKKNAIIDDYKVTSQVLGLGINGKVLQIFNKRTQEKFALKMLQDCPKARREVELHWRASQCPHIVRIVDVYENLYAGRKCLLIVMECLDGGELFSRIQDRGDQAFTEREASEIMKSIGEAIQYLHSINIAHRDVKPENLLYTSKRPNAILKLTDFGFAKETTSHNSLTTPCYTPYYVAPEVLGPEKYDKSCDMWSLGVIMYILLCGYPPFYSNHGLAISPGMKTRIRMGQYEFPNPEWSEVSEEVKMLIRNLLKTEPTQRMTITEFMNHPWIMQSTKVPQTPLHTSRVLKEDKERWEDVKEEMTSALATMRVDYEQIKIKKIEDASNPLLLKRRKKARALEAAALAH

AXL (human) = AXL (human) (UniProt P30530)
Chain of AXL (human) (P30530 whole entry, looked up): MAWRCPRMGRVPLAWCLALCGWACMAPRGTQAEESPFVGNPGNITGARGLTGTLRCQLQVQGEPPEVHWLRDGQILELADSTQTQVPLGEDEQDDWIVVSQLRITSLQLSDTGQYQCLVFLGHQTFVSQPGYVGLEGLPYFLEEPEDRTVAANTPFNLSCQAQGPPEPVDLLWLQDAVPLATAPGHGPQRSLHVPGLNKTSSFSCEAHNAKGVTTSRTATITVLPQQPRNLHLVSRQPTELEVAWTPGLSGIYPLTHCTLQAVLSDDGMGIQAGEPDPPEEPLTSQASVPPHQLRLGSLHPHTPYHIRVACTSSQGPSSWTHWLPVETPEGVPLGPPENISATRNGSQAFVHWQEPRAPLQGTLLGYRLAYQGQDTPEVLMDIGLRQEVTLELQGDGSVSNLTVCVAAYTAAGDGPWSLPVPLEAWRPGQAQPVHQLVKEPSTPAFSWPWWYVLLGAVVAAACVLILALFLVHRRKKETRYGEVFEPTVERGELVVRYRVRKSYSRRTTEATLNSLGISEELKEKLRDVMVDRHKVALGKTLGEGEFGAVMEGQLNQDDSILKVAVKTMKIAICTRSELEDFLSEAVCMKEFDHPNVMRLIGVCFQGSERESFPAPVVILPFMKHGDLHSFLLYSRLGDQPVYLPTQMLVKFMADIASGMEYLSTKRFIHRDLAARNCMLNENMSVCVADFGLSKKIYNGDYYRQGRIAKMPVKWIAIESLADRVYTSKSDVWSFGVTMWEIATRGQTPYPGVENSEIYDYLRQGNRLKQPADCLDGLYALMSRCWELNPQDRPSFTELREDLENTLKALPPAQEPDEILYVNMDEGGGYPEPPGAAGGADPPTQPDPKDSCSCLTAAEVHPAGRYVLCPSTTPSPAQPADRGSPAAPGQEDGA

MAPK9 (human) = MAPK9 (human) (UniProt P45984)
PLK3 (human) = PLK3 (human) (UniProt Q9H4B4)
SLK (human) = SLK (human) (UniProt Q9H2G2)
MAPK14 (human) = MAPK14 (human) (UniProt Q16539)
PRKD2 (human) = PRKD2 (human) (UniProt Q9BZL6)
BRSK1 (human) = BRSK1 (human) (UniProt Q8TDC3)
NEK1 (human) = NEK1 (human) (UniProt Q96PY6)
Chain of NEK1 (human) (Q96PY6 whole entry, looked up): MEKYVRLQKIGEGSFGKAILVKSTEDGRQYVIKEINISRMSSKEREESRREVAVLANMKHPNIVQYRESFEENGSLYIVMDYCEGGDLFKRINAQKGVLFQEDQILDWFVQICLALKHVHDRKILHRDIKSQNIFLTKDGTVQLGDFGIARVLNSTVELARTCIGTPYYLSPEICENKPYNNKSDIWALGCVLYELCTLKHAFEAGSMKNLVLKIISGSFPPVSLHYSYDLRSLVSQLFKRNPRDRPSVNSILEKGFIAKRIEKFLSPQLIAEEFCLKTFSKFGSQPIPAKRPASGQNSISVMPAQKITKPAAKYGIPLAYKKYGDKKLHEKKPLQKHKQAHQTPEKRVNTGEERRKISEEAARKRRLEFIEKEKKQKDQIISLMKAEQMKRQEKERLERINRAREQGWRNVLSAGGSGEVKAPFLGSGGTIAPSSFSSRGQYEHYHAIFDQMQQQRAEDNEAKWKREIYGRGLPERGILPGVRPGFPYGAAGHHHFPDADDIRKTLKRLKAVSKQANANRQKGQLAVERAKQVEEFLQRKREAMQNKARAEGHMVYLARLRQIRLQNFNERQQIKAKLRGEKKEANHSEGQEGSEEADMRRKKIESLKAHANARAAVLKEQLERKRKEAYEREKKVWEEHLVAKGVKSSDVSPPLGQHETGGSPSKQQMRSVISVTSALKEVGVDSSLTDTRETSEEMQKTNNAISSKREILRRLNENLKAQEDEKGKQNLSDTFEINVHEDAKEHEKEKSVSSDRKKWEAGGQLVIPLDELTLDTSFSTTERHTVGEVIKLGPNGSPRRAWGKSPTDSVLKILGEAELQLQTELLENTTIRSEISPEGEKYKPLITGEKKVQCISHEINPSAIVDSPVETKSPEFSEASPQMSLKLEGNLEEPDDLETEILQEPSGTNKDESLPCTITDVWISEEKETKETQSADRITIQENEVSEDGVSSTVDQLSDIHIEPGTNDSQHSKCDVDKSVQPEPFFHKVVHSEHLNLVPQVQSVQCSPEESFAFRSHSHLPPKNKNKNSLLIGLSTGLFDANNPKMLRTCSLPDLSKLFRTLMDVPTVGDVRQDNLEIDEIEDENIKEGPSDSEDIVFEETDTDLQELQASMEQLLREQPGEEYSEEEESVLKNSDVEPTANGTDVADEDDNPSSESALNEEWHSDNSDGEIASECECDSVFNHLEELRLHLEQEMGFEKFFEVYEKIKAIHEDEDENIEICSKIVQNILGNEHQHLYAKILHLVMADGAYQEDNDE

IRAK4 (human) = IRAK4 (human) (UniProt Q9NWZ3)
PDGFRB (human) = PDGFRB (human) (UniProt P09619)
MYO3B (human) = MYO3B (human) (UniProt Q8WXR4)
MELK (human) = MELK (human) (UniProt Q14680)
Chain of MELK (human) (Q14680 whole entry, looked up): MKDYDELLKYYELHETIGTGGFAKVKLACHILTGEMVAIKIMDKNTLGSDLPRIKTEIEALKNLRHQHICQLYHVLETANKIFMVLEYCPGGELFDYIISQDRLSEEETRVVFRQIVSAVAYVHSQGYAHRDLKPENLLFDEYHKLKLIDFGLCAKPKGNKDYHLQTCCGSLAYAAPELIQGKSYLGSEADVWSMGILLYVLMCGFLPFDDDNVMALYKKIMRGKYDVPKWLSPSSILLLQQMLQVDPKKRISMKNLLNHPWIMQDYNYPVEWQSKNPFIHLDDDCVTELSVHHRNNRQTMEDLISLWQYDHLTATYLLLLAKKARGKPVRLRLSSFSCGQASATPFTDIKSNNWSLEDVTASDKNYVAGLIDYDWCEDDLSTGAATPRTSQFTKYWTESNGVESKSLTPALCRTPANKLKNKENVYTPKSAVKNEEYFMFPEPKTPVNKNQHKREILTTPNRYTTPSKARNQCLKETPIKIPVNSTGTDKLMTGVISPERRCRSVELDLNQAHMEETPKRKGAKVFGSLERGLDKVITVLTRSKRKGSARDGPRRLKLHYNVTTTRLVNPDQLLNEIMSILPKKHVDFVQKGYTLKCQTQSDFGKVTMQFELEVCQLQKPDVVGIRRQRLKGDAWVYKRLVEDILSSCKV

FGFR3 (human) = FGFR3 (human) (UniProt P22607)
NTRK2 (human) = NTRK2 (human) (UniProt Q16620)
Chain of NTRK2 (human) (Q16620 whole entry, looked up): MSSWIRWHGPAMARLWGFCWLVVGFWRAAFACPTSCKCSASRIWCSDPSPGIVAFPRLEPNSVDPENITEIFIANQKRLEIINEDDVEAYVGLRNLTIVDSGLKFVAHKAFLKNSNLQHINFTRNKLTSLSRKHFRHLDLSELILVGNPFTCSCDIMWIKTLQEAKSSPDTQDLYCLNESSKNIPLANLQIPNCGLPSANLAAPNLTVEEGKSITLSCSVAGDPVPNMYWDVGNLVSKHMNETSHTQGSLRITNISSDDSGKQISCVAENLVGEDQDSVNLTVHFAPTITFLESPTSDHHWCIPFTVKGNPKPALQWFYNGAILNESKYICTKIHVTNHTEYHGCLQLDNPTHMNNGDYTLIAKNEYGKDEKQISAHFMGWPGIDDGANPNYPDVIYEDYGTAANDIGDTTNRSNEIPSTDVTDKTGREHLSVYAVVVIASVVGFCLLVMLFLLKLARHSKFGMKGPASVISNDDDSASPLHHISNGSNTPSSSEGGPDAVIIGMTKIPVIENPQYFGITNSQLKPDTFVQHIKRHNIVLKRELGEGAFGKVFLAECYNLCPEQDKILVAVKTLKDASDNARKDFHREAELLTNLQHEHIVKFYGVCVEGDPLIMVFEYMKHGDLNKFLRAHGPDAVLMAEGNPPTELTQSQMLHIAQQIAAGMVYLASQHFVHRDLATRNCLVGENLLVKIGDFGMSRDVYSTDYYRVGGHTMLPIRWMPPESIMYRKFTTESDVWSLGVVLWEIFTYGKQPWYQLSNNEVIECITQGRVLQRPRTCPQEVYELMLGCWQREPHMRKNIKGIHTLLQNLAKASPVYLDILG

CLK3 (human) = CLK3 (human) (UniProt P49761)
RPS6KA6 KD1 KD2 (human) = RPS6KA6 KD1 KD2 (human) (UniProt Q9UK32)
TTK (human) = TTK (human) (UniProt P33981)
LYN (human) = LYN (human) (UniProt P07948)
PRKG2 (human) = PRKG2 (human) (UniProt Q13237)
GRK4 (human) = GRK4 (human) (UniProt P32298)
NTRK3 (human) = NTRK3 (human) (UniProt Q16288)
NTRK1 (human) = NTRK1 (human) (UniProt P04629)
CSNK1A1 (human) = CSNK1A1 (human) (UniProt P48729)
Chain of CSNK1A1 (human) (P48729 whole entry, looked up): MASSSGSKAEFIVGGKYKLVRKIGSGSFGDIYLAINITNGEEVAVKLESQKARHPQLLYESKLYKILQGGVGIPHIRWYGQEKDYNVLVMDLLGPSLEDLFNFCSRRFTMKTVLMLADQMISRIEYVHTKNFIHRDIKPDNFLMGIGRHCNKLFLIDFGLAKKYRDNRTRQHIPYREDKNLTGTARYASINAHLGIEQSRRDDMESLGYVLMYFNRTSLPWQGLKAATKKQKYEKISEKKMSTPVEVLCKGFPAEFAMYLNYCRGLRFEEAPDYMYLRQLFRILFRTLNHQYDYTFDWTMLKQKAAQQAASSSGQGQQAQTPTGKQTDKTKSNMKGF

CLK4 (human) = CLK4 (human) (UniProt Q9HAZ1)
MLTK (human) = MLTK (human) (UniProt Q9NYL2)
KIT (human) = KIT (human) (UniProt P10721)
MAPK3 (human) = MAPK3 (human) (UniProt P27361)
Chain of MAPK3 (human) (P27361 whole entry, looked up): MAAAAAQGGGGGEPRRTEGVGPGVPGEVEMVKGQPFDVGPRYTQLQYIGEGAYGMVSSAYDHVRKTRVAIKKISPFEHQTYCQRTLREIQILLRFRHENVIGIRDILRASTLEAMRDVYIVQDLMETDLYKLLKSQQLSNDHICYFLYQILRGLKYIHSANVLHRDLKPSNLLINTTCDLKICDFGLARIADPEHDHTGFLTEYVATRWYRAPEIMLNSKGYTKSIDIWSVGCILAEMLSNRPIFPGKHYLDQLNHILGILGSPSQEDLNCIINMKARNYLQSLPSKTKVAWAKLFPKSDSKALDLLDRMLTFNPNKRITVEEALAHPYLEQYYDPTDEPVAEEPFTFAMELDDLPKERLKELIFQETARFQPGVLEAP

PAK4 (human) = PAK4 (human) (UniProt O96013)
TLK2 (human) = TLK2 (human) (UniProt Q86UE8)
STK16 (human) = STK16 (human) (UniProt O75716)
Chain of STK16 (human) (O75716 whole entry, looked up): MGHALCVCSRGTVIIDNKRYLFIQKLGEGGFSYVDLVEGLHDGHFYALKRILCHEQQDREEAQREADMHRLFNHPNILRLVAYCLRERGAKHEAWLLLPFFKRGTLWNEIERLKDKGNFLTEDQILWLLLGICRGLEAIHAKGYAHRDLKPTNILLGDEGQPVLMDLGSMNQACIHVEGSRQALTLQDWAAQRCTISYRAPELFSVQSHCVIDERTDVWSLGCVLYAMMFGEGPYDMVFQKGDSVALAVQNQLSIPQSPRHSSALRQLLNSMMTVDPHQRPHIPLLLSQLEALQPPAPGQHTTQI

ADRBK2 (human) = ADRBK2 (human) (UniProt P35626)

N#CC(C#N)=C(N)/C(C#N)=C/c1ccc(O)cc1 gave a residual activity (WEE1 (human)) of 93.7%, a residual activity (NEK2 (human)) of 102% and a residual activity (SRMS (human)) of 107%. It also gave a residual activity (SRC (human)) of 92.3%, a residual activity (PTK6 (human)) of 84.9% and a residual activity (CDK9 CCNT1 (human)) of 83.9%. It also gave a residual activity (EPHB2 (human)) of 97.1%, a residual activity (PTK2 (human)) of 98.5% and a residual activity (PRKCE (human)) of 89.3%. The residual activity (PHKG1 (human)) was 92.5%, the residual activity (MAPKAPK2 (human)) was 91.3% and the residual activity (AXL (human)) was 93.7%. The residual activity (MAPK9 (human)) was 105%, the residual activity (PLK3 (human)) was 63.6% and the residual activity (SLK (human)) was 102%. It also gave a residual activity (MAPK14 (human)) of 104%, a residual activity (PRKD2 (human)) of 100% and a residual activity (BRSK1 (human)) of 99.2%. For the same compound, the residual activity (NEK1 (human)) was 95.7%, the residual activity (IRAK4 (human)) was 92.6% and the residual activity (PDGFRB (human)) was 98.8%. It also gave a residual activity (MYO3B (human)) of 88.1%, a residual activity (MELK (human)) of 101% and a residual activity (FGFR3 (human)) of 98.9%. For the same compound, the residual activity (NTRK2 (human)) was 95.4%, the residual activity (CLK3 (human)) was 100% and the residual activity (RPS6KA6 KD1 KD2 (human)) was 104%. For the same compound, the residual activity (TTK (human)) was 94.4%, the residual activity (LYN (human)) was 102% and 92.2% and the residual activity (PRKG2 (human)) was 86.9%. The residual activity (GRK4 (human)) was 99.6%, the residual activity (NTRK3 (human)) was 95.5% and the residual activity (NTRK1 (human)) was 102%. For the same compound, the residual activity (CSNK1A1 (human)) was 85%, the residual activity (CLK4 (human)) was 101% and the residual activity (MLTK (human)) was 95.7%. For the same compound, the residual activity (KIT (human)) was 92.4%, the residual activity (MAPK3 (human)) was 101% and the residual activity (PAK4 (human)) was 85.6%. It also gave a residual activity (TLK2 (human)) of 89.4%, a residual activity (STK16 (human)) of 109% and a residual activity (ADRBK2 (human)) of 96.7%.

CCC(=O)Nc1ccc2ncnc(Nc3cccc(Br)c3)c2c1 gave a residual activity (WEE1 (human)) of 80.2%, a residual activity (NEK2 (human)) of 87.5% and a residual activity (SRMS (human)) of 99.4%. The residual activity (SRC (human)) was 93.6%, the residual activity (PTK6 (human)) was 57.2% and the residual activity (CDK9 CCNT1 (human)) was 93.7%. It also gave a residual activity (EPHB2 (human)) of 95.1%, a residual activity (PTK2 (human)) of 99.4% and a residual activity (PRKCE (human)) of 99.7%. For the same compound, the residual activity (PHKG1 (human)) was 92.4%, the residual activity (MAPKAPK2 (human)) was 87.1% and the residual activity (AXL (human)) was 126%. The residual activity (MAPK9 (human)) was 78.3%, the residual activity (PLK3 (human)) was 93.2% and the residual activity (SLK (human)) was 90%. The residual activity (MAPK14 (human)) was 82.8%, the residual activity (PRKD2 (human)) was 85.1% and the residual activity (BRSK1 (human)) was 83.3%. It also gave a residual activity (NEK1 (human)) of 76.9%, a residual activity (IRAK4 (human)) of 79.8% and a residual activity (PDGFRB (human)) of 98%. For the same compound, the residual activity (MYO3B (human)) was 135%, the residual activity (MELK (human)) was 93.4% and the residual activity (FGFR3 (human)) was 93.2%. It also gave a residual activity (NTRK2 (human)) of 77.1%, a residual activity (CLK3 (human)) of 99.3% and a residual activity (RPS6KA6 KD1 KD2 (human)) of 90.6%. The residual activity (TTK (human)) was 113%, the residual activity (LYN (human)) was 82.6% and 87.7% and the residual activity (PRKG2 (human)) was 110%. The residual activity (GRK4 (human)) was 96.2%, the residual activity (NTRK3 (human)) was 95.8% and the residual activity (NTRK1 (human)) was 95.8%. It also gave a residual activity (CSNK1A1 (human)) of 97%, a residual activity (CLK4 (human)) of 99.4% and a residual activity (MLTK (human)) of 96%. The residual activity (KIT (human)) was 90.4%, the residual activity (MAPK3 (human)) was 101% and the residual activity (PAK4 (human)) was 105%. It also gave a residual activity (TLK2 (human)) of 104%, a residual activity (STK16 (human)) of 99.6% and a residual activity (ADRBK2 (human)) of 99.2%.

Compound CO[C@H]1CC2CC[C@@H](C)[C@@](O)(O2)C(=O)C(=O)N2CCCC[C@H]2C(=O)OC([C@H](C)C[C@@H]2CC[C@@H](O)[C@H](OC)C2)CC(=O)[C@H](C)/C=C(\C)[C@@H](O)[C@@H](OC)C(=O)[C@H](C)C[C@H](C)/C=C/C=C/C=C/1C (stereo partly specified) has a residual activity (WEE1 (human)) of 93.3%, a residual activity (NEK2 (human)) of 107% and a residual activity (SRMS (human)) of 108%. For the same compound, the residual activity (SRC (human)) was 96%, the residual activity (PTK6 (human)) was 88% and the residual activity (CDK9 CCNT1 (human)) was 87%. It also gave a residual activity (EPHB2 (human)) of 114%, a residual activity (PTK2 (human)) of 103% and a residual activity (PRKCE (human)) of 105%. The residual activity (PHKG1 (human)) was 93%, the residual activity (MAPKAPK2 (human)) was 101% and the residual activity (AXL (human)) was 99.5%. It also gave a residual activity (MAPK9 (human)) of 98.4%, a residual activity (PLK3 (human)) of 96.2% and a residual activity (SLK (human)) of 98.7%. For the same compound, the residual activity (MAPK14 (human)) was 99.1%, the residual activity (PRKD2 (human)) was 99% and the residual activity (BRSK1 (human)) was 99.9%. For the same compound, the residual activity (NEK1 (human)) was 104%, the residual activity (IRAK4 (human)) was 123% and the residual activity (PDGFRB (human)) was 108%. The residual activity (MYO3B (human)) was 106%, the residual activity (MELK (human)) was 97.8% and the residual activity (FGFR3 (human)) was 102%. For the same compound, the residual activity (NTRK2 (human)) was 106%, the residual activity (CLK3 (human)) was 94.4% and the residual activity (RPS6KA6 KD1 KD2 (human)) was 118%. For the same compound, the residual activity (TTK (human)) was 117%, the residual activity (LYN (human)) was 100% and 105% and the residual activity (PRKG2 (human)) was 91.9%. The residual activity (GRK4 (human)) was 96.1%, the residual activity (NTRK3 (human)) was 103% and the residual activity (NTRK1 (human)) was 98.4%. It also gave a residual activity (CSNK1A1 (human)) of 99.3%, a residual activity (CLK4 (human)) of 116% and a residual activity (MLTK (human)) of 103%. It also gave a residual activity (KIT (human)) of 95.7%, a residual activity (MAPK3 (human)) of 104% and a residual activity (PAK4 (human)) of 97.1%. It also gave a residual activity (TLK2 (human)) of 94.4%, a residual activity (STK16 (human)) of 112% and a residual activity (ADRBK2 (human)) of 98%.
